The results in this text go back to patent US20100062993A1, “Adenosine Nucleotides as Dietary Supplements and as Agents in the Prevention of Cancer and the Metastasis Thereof” (priority 2008, published 2010).

This test relates to human cancer cell linings. In words: Mice implanted with human cancer (tumor) cell linings: efficacy of MTA relative to SAMe. In kind it is in vivo. The source says:
It is therefore astonishing that MTA, in experimental results on mice implanted with tumor cell linings, was 10 times more efficacious than SAMe. Part of the pharmacodynamics is surely that MTA is toxic to many cancer cells that are deficient in the enzymes that are needed to process it. Yet this 10:1 efficacy ratio is inexplicable under the above suppositions!
This is extremely surprising in light of the above!

Regarding `CSC[C@H]1O[C@@H](n2cnc3c(N)ncnc32)[C@H](O)[C@@H]1O` [MTA, 5-deoxy-5-methylthioadenosine], the “efficacy relative to SAMe” value (mice implanted with human cancer cell linings, ratio versus SAMe) was “more than 10 fold”. For the same molecule, under “mice implanted with tumor cell linings, ratio versus SAMe (10:1)”, the “efficacy of MTA relative to SAMe (times more efficacious)” value is on record as 10 times.
